# Laboratory results reported in patent publication US8367060B2, “Pharmaceutical composition containing arazyme for the prevention of liver dysfunction” (Insect Biotech Co., Ltd., priority 2006, dated 2013).
# “Also recorded” adds a separate entry of the source.
# How the values were obtained:
# [1] = system: liver cells; experiment: Histopathological observation on liver cells (H&E) in CCl4-induced acute liver injury; assay type: in vivo, mice; conditions: for necrosis in liver cells: 100 mg/kg oral one day before CCl4 0.4 ml/kg i.p., autopsy 24 hours after CCl4
# Text: In the present invention, male wild type C57BL/6(WT) at 12 weeks and SMP30 knock-out C57BL/6(KO) mice were used to induce liver injury by CCl4 and then the relation of SMP30 with arazyme was investigated. 10 male and 20 female SMP30 knock-out C57BL/6 mice were distributed from Tokyo Metropolitan Institute of Gerontology, which were then raised in the animal laboratory at Department of Pathology, College of Veterinary Medicine, Kyungpook National University, Korea. Among F1 mice generated by breeding, knock-out mice were selected by tail DNA genotyping by PCR.
# Wild type mice were quarantined and adapted for 7 days in the animal laboratory. During the adaptation, every symptom was checked and only healthy animals were selected. Both wild type and SMP30 knock-out mice were 12 weeks old, excluding the difference in age.
# Rats were adapted and raised in an animal facility where temperature was regulated to 22±3° C., humidity was adjusted to 55±10% and light was also regulated to 12L/12D (08:00 lights on, 20:00 lights out). The environmental conditions were checked regularly (every three months). After environmental evaluation, no changes in important conditions were recognized. During the whole experiment period, rats were raised in polycarbonate cages [240 W×390 L×175 H (mm)] by up to 5 per cage. Skin mark using an oil magic pen and individual identification card were used for distinguishment. Feed for laboratory animals (PMI Nutrition International, 505 North 4th Street Richmond, in 47374, USA) was provided at any time after being sterilized by irradiation (13.2 kGy). Tap water was provided using a water bottle at any time after being purified by a carbon filter. Carbon tetrachloride was diluted in olive oil at the concentration of 0.4 ml/kg and administered to […] once to induce liver injury. 24 hours after the administration, autopsy was performed.
# Wild type mice and SMP30 knock-out mice were divided, by 5 of each, into negative control groups (G1, G5), positive control groups (G2, G6), two of experimental group 1 (G3, G7) and two of experimental group 2 (G4, G8) (Table 1). […]
# [2] = system: SMP30; experiment: Immunohistochemical observation of SMP30 in liver cells; assay type: in vivo; conditions: wild type mice, 100 mg/kg oral before CCl4, compared with CCl4 alone
# Protocol: (§1) Wild type mice and SMP30 knock-out mice were divided, by 5 of each, into negative control groups (G1, G5), positive control groups (G2, G6), two of experimental group 1 (G3, G7) and two of experimental group 2 (G4, G8) (Table 1). Intraperitoneal administration of olive oil was performed once to negative control mice (G1, G5), while intraperitoneal administration of CCl4 (0.4 ml/kg) was performed once to positive control mice (G2, G6). In the meantime, 100 mg/kg of vitamin C dissolved in tap water was orally administered to experimental group 1 mice (G3, G7) one day before the intraperitoneal administration of CCl4 (0.4 ml/kg). 100 mg/kg of arazyme dissolved in tap water was orally administered to experimental group 2 mice (G4, G8) one day before the intraperitoneal administration of CCl4 (0.4 ml/kg). 24 hours after the administration of CCl4, autopsy was performed in every mouse and samples were taken from each mouse for histopathological test.
# To observe SMP30 in liver cells immunohistochemically, paraffin embedded tissues fixed with formalin were cut into 4 μm thick sections, followed by deparaffinization. To inhibit the activity of endogenous peroxidase, the sections were treated in 3% H2O2 for 30 minutes and washed with 0.01 M PBS. To increase antigen expression of the tissues, the sections were treated with 0.01 M citrate buffer, followed by heat treatment using microwave. […]
# [3] = system: SMP30; experiment: Expression of SMP30 in liver cells by immunoblotting; assay type: in vivo; conditions: wild type mice; 100 mg/kg oral before CCl4; compared with CCl4 only (G2)
# Protocol: as §1
# (§2) The expression of SMP30 in liver cells was investigated by immunoblotting. First, the liver tissues frozen at −70° C. were homogenized in RIPA buffer containing 0.1 mM sodium orthovandate (Na3VO4) and protease inhibitor cocktail tablet (Roche, Mannheim, Germany). […] Protein concentration was measured by Bradford method and each protein sample proceeded onto 10% SDS-polyacrylamide gel at the concentration of 80 µg/well, followed by electrophoresis. […]
# [4] = system: P-smad3; experiment: Immunohistochemical observation of P-smad3 expression in liver cells; assay type: in vivo, mice; conditions: 100 mg/kg oral before CCl4
# [5] = system: P-smad3; experiment: Expression of P-smad3 in liver cells by immunoblotting; assay type: in vivo; conditions: SMP30 knock-out mice; compared with CCl4 alone (G6)
# Protocol: as §1, §2
smiles,measurement,setting,value
"O=C1O[C@H]([C@@H](O)CO)C(O)=C1O [vitamin C, L-ascorbic acid, reference compound]",necrosis in liver cells,[1]; SMP30 knock-out C57BL/6 mice,significantly inhibited
same,necrosis in liver cells,[1]; wild type C57BL/6 mice,significantly inhibited
same,"apoptosis of liver cells, histological observation",[1]; wild type and SMP30 knock-out mice with acute liver injury,inhibition of apoptosis of liver cells was observed
same,SMP30 expression (immunohistochemistry),[2],higher; also recorded: more strongly expressed
same,SMP30 expression (immunoblotting),[3],high
same,P-smad3 immune response (immunohistochemistry),"[4]; SMP30 knock-out mice, G6, G7 compared with G8",strongly detected
same,P-smad3 immune response (immunohistochemistry),"[4]; wild type mice, compared with CCl4 only (G2), 100 mg/kg","strong immune response against P-smad3 was detected in group 2 (G2) treated with CCl4 only, compared with the groups (G3, G4) treated with vitamin C and arazyme; also recorded: strongly observed in CCl4 treated group (G2), compared with the groups treated with vitamin C and arazyme (G3, G4)"
same,P-smad3 expression (immunoblotting),[5],inhibited
